Consider four molecules from US6770671B2, “7,8-dihydro-xanthenone-8-carboxylic acid derivative and novel microbe producing the same” (Korea Research Institute of Bioscience and Biotechnology, priority 2000, dated 2004).

Molecules are shown by their SMILES. Several values for one entry are separate records, joined by “and”; a condition that tells them apart may be missing. Equal values may be shown once. Entries after “also recorded” stand apart in the source; their conditions may differ. Where only a bound is given, the exact number is not on record here.

For data set [1], the system named is smooth muscle myosin light chain kinase. Conditions: Nakanishi et al., J. Antibiotics 1993; cited from earlier work.
For the next data set, the system named is protein kinase C. Conditions: Nakanishi et al., J. Antibiotics 1993; cited from earlier work.
The subject of data set [2] is angiogenesis in chorioallantoic membrane. Put plainly: Chorioallantoic membrane (CAM) assay using fertilized eggs. The settings on record: for Inhibition ratio (%): percentage of positive eggs to total tested eggs. Type of data set: in vivo. How it is done:
<4-2> Inhibitory Effect on in vivo Angiogenesis Chorioallantoic membrane assay using fertilized eggs was used to examine whether the novel compound ACRL-B4 of the present invention is effective to inhibit angiogenesis in vivo.
After being grown at 37° C. for three days at a humidity of 90% in an incubator, fertilized eggs were deprived of 2 ml of albumin through a 18-gauge subcutaneous injection needle. On the fourth day, a circular window was cut into each of the eggs and the outer layers of their chorioallantoic membranes were removed. Separately, pieces of thermanox coverslip were coated with the ACRL-B4 compound dissolved in ethanol at the concentration of 1 and 5 μg/coverslip and the ethanol was evaporated. On day 4.5, the thermanox coverslip were placed on the embryonic chorioallantoic membranes of the embryos. After 2 days incubation at 37° C., 1-2 ml of 10% fat emulsion was injected into chorioallantois and observed blood vessel formation during an embryogenesis or development procedure under a microscope. As a positive control, 1 μg/egg of retinoic acid was used and a negative control was non-treated coverslip.

The test system of data set [3] is VEGF-induced proliferation of HUVEC. The data set can be described thus: VEGF-induced HUVEC proliferation (acid phosphatase assay). Type of data set: cell-based, human. Conditions: VEGF 20 ng/ml; 0.004-10 μg/ml compound; 48 hours; FIG. 1. The text has this: (§1) To determine the inhibitory effect of the compound represented by the chemical formula 1 on angiogenesis, endothelial cells were used as a model on the basis that they are migrated and differentiated into capillary tubes under a specific culture condition, that is, in the presence of angiogenic factors such as VEGF, bFGF, etc. Stimulation by angiogenic factors triggers complex, intracellular reactions of endothelial cells and causes them to undergo cell proliferation and differentiation, resulting in the induction of angiogenesis. […] In gelatin-coated 96-well plates, HUVEC cultured in an M199 medium (20% FBS, 3 ng/ml bFGF, 100 μg/ml heparin) was plated at a density of 10^4 cells/well and cultured for 24 hours under the condition of serum starvation. Thereafter, VEGF and bFGF were independently added at a concentration of 20 ng/ml per well and ACRL-B4 was also added at concentrations of 0.004, 0.02, 0.08, 0.4, 2 and 10 μg/ml while control wells were treated with angiogenic factors only. After 48 hours incubation, the inhibition of HUVEC proliferation by the ACRL-B4 was quantitatively analyzed by an acid phosphatase assay.

Data set [4] relates to bFGF-induced proliferation of HUVEC. Put plainly: bFGF-induced HUVEC proliferation (acid phosphatase assay). Type of data set: cell-based, human. Conditions: bFGF 20 ng/ml; 0.004-10 μg/ml compound; 48 hours; FIG. 1.
Text: as §1

Data set [5] deals with Lewis lung carcinoma 3LL cells. The data set can be described thus: In vivo tumor growth, 3LL Lewis lung carcinoma in C57BL/6 mice. More on the design: species or system mouse. Conditions: for inhibition of tumor growth: 3LL in C57BL/6 mice. How it is done:
Into the backs of C57BL/6 mice 4-5 weeks old, 10^6 3LL cancer cells (Korean Collection for Type Culture at Korea Research Institute of Bioscience and Biotechnology) were subcutaneously transplanted. When the tumors were grown to sizes of 100-250 mm^3, the mice were randomly mixed and divided into 4 groups, each of 6 members, to which drugs were administered. For Group 1, only a solvent was used, while the novel compound ACRL-B4 represented by the chemical formula 1 was intraperitoneally injected every other day at doses of 30 mg/kg, 15 mg/kg and 5 mg/kg to Groups 2 to 4, respectively, under the monitoring of tumor sizes and body weights. The test compound was dissolved in a solvent mixture of 85% physiological saline, 5% DMSO (dimethylsulfoxide) and 10% cremophore.
Tumor sizes were calculated according to the following mathematical formula 1, and since the transplantation of cancer cells, changes in tumor size had been measured and the results are depicted in FIG. 2. [formula]

The next data set has as its system B16-BL6 melanoma cells. The data set can be described thus: In vivo tumor growth, B16-BL6 melanoma in C57BL/6 mice. More on the design: species or system mouse. Conditions: for inhibition of tumor growth: B16-BL6 in C57BL/6 mice. How it is done:
Onto the back of C57BL/6 mice 4-5 weeks old, 10^6 B16-BL6 melanoma cells were subcutaneously transplanted. When the tumors were grown to sizes of 100-250 mm^3, the mice were randomly mixed and divided into 4 groups, each of 6 members, to which drugs were then administered. For Group 1, only a solvent was used, while the novel compound ACRL-B4 represented by the chemical formula 1 was intraperitoneally injected every other day at doses of 30 mg/kg, 15 mg/kg and 5 mg/kg to Groups 2 to 4, respectively, with monitoring of tumor sizes and body weights. The test compound was dissolved in a solvent mixture of 85% physiological saline, 5% DMSO (dimethylsulfoxide) and 10% cremophore.
For the calculation of cancer sizes, the mathematical formula 1 was used, and since the transplantation of cancer cells, changes in tumor size had been measured and the results are depicted in FIG. 3.

The nature of data set [6]: Acute toxicity test on rat upon oral administration. The settings on record: in vivo, 500 mg/kg. How it is done: Using specific pathogen-free (SPF) SD rats, which were six weeks old, the 7,8-dihydro-xanthenone-8-carboxylic acid derivative of the present invention were tested for acute toxicity.
Suspensions of the compound of the present invention in 0.5% methyl cellulose were orally administered once at a dose of 500 mg/kg/15 ml to the rats, which were grouped in threes. […] An autopsy was made of the rats with the naked eye to observe whether their abdominal and thoracic organs were damaged.

What is called LD50 is the dose at which mortality reaches 50%.

Take `COC(=O)C12OC1C=Cc1oc3cc(CO)cc(O)c3c(=O)c12` (stereo not shown) [MS-347a]: the “inhibition of smooth muscle myosin light chain kinase” value in data set [1] was “inhibitory activity against smooth muscle myosin light chain kinase”. The “inhibition of protein kinase C” value in the data set on protein kinase C is “inhibitory activity”.
As for `CC1=C(/C=C/C(C)=C/C=C/C(C)=C/C(=O)O)C(C)(C)CCC1` [Positive control, retinoic acid, reference compound], in data set [2] (1 μg/egg), the “No. of egg showing anti-angiogenesis” value is reported as 6 and the “Inhibition ratio (%)” value came to 75%.
For the molecule `COC(=O)C1c2c(oc3cc(CO)cc(O)c3c2=O)C=CC1O` (stereo not shown) [ACRL-B4, 7,8-dihydro-1,7-dihydroxy-3-hydroxymethyl-xanthenone-8-carboxylic acid methyl ester], the “inhibition of VEGF-induced HUVEC proliferation” value in data set [3] is listed as “specifically inhibit the VEGF-induced proliferation of HUVEC; also recorded: potent inhibitory activity against the proliferation of HUVEC; also recorded: inhibit the HUVEC proliferation induced by angiogenic factors, especially VEGF”. In addition, the “inhibition of bFGF-induced HUVEC proliferation” value in data set [4] is reported as “inhibit the HUVEC proliferation induced by angiogenic factors”. Besides, the results for the “No. of egg showing anti-angiogenesis” value in data set [2] (1 μg/egg) and in data set [2] (5 μg/egg) were 10 and 9, respectively. Also, the “Inhibition ratio (%)” value in data set [2] (1 μg/egg) is 71% and 71.4%; in data set [2] (5 μg/egg), 90%. Besides, the “inhibition of tumor growth” value in data set [5] (5 mg/kg i.p. every other day) is listed as 40%; in data set [5] (15 mg/kg i.p. every other day) it was 60%; in data set [5] (30 mg/kg i.p. every other day), 80%; with B16-BL6 melanoma cells (5 mg/kg i.p. every other day) it was 40%; in the data set with B16-BL6 melanoma cells (15 mg/kg i.p. every other day), 50%; with B16-BL6 melanoma cells (30 mg/kg i.p. every other day), 65%. Further, the “side effects / body weight” value was “did not exhibit toxic effects such as weight loss; also recorded: without causing side effects such as loss of body weight” in data set [5] (5-30 mg/kg i.p. every other day, 3LL-bearing C57BL/6 mice) and “did not exhibit toxic effects such as weight loss; also recorded: without causing side effects such as loss of body weight” with B16-BL6 melanoma cells (5-30 mg/kg i.p. every other day, B16-BL6-bearing C57BL/6 mice). Moreover, the LD50 in data set [6] (oral, single dose, SD rats, read-out: lethal dose (LD50)) was no less than 500 mg/kg. For the same molecule, in data set [6] (po), the “death and clinical symptoms” value was “Neither sudden death nor noticeable clinical symptoms were detected”. Besides, the “toxicity signs (weight change, serological tests, serobiochemical tests, corpse examination)” value in data set [6] (po) is on record as “no toxicity signs were observed”.
As to `COC(=O)c1c(O)ccc2oc3cc(CO)cc(O)c3c(=O)c12` [sydowinin B], the “inhibition of smooth muscle myosin light chain kinase” value in data set [1] is reported as “inhibitor of smooth muscle myosin light chain kinase”.
